Results as given in ChEMBL document CHEMBL1142686, “CoMFA, synthesis, and pharmacological evaluation of (E)-3-(2-carboxy-2-arylvinyl)-4,6-dichloro-1H-indole-2-carboxylic acids: 3-[2-(3-aminophenyl)-2-carboxyvinyl]-4,6-dichloro-1H-indole-2-carboxylic acid, a potent selective glycine-site NMDA receptor antagonist” (J Med Chem, 2005).

Target: Glutamate NMDA receptor
Experiment: Antagonist activity of compound against rat N-methyl-D-aspartate glutamate receptor using 11 nM [3H]glycine
Assay type: functional

Row | Compound | IC50 [nM]
1 | O=C(O)/C(=C/c1c(C(=O)O)[nH]c2cc(Cl)cc(Cl)c12)c1ccncc1 | 151
2 | O=C(O)/C(=C/c1c(C(=O)O)[nH]c2cc(Cl)cc(Cl)c12)c1ccc(Cl)cc1Cl | 116
3 | O=C(NCCc1ccccc1)/C(=C/c1c(C(=O)O)[nH]c2cc(Cl)cc(Cl)c12)c1ccccc1 | 224
4 | CN(C)C(=O)/C(=C/c1c(C(=O)O)[nH]c2cc(Cl)cc(Cl)c12)c1ccccc1 | 68
5 | O=C(O)/C(=C/c1c(C(=O)O)[nH]c2cc(Cl)cc(Cl)c12)c1ccccn1 | 1020
6 | O=C(O)/C(=C/c1c(C(=O)O)[nH]c2cc(Cl)cc(Cl)c12)c1ccc(Cl)cc1 | 65
7 | N#C/C(=C/c1c(C(=O)O)[nH]c2cc(Cl)cc(Cl)c12)c1ccc(N)cc1 | 4660
8 | COc1cccc(/C(=C\c2c(C(=O)O)[nH]c3cc(Cl)cc(Cl)c23)C(=O)O)c1 | 117
9 | O=C(Nc1ccccc1)/C(=C/c1c(C(=O)O)[nH]c2cc(Cl)cc(Cl)c12)c1ccccc1 | 15
10 | O=C(O)c1[nH]c2cc(Cl)cc(Cl)c2c1/C=C/C(=O)N1CCCCC1 | 38
11 | O=C(O)/C(=C/c1c(C(=O)O)[nH]c2cc(Cl)cc(Cl)c12)c1ccccc1Cl | 212
12 | CN(C)c1cccc(/C(=C\c2c(C(=O)O)[nH]c3cc(Cl)cc(Cl)c23)C(=O)O)c1 | 225
13 | O=C(O)/C(=C\c1c(C(=O)O)[nH]c2cc(Cl)cc(Cl)c12)c1ccccc1 | 157
14 | COc1ccc(/C(=C\c2c(C(=O)O)[nH]c3cc(Cl)cc(Cl)c23)C(=O)O)cc1 | 136
15 | O=C(O)/C(=C/c1c(C(=O)O)[nH]c2cc(Cl)cc(Cl)c12)c1cccnc1 | 126
16 | CNC(=O)/C(=C/c1c(C(=O)O)[nH]c2cc(Cl)cc(Cl)c12)c1ccccc1 | 50
17 | NC(=O)/C(=C/c1c(C(=O)O)[nH]c2cc(Cl)cc(Cl)c12)c1ccccc1 | 20
18 | O=C(O)/C(=C/c1c(C(=O)O)[nH]c2cc(Cl)cc(Cl)c12)c1ccoc1 | 21
19 | O=C(O)/C(=C/c1c(C(=O)O)[nH]c2cc(Cl)cc(Cl)c12)c1ccc(Br)cc1 | 29
